Measurements published in patent US20060183794A1, “Drug composition containing nf-kb inhibitor” (priority 2002, published 2006).

Key:
[1] = test system: ATL cells of ATL patients; assay: MTT assay, ATL cells from peripheral blood of ATL patients; type: cell-based, human; details: three cases; 10 μg/ml, 24 hours
Method: Mononuclear cells were isolated from peripheral blood cells of ATL patients and ATL cells were isolated. DHM2EQ was added to the isolated ATL cells of three cases at a final concentration of 10 μg/ml and the cells were incubated for 24 hours. The proliferation-inhibitory effect was examined by the MTT assay. Using the cells to which solvent DMSO had been added in equal volume as controls, the proliferation-inhibitory effect was evaluated by the ratio of the MMT values of DHM2EQ-treated cells to those of DHM2EQ-untreated cells, i.e., (MTT values of DHM2EQ-treated cells/MTT values of DHM2EQ-untreated cells).

[2] = Acute toxicity test in ICR mice; type: in vivo; details: mouse, in vivo, intraperitoneal; ICR mice, abdominal cavity, 24 hours; read-out: acute toxicity LD 50
Method: (§1) An acute toxicity test of DHMEQ was performed as follows: DHMEQ was dissolved in one drop of 10% DMSO saline+Tween, administered to the abdominal cavity of ICR mice, and the mortality/survival and status of the mice after 24 hours were investigated.

[3] = test system: ICR mice; assay: Acute toxicity test in ICR mice; type: in vivo; details: ICR mice i.p.
Method: as §1

[4] = test system: MM cell lines, KMM1, RPMI8226, and U266; assay: MTT assay, proliferation of multiple myeloma cell lines; type: cell-based
Method: Cells from the ATL cell lines (MT-1 and TL-Om1) and a control cell line (K562) were plated in 96-well plates at 1×10^5 cells/well and DHM2EQ was added at the desired final concentrations (2, 5, and 10 μg/ml). Cells to which the solvent DMSO had been added in equal volume (0 μg/ml) were used as […] incubation for 72 hours, cell viability was judged by the MTT assay. Relative MTT values were obtained as the ratio of the MMT values of DHM2EQ-treated cells to those of DHM2EQ-untreated cells, i.e., (MTT values of DHM2EQ-treated cells/MTT values of DHM2EQ-untreated cells)×100(%).
(§2) DHM2EQ was added to the ATL cell lines (MT-1 and TL-Om1) and a control cell line (K562) at a final concentration of 10 μg/ml and the cells were incubated for 12, 24, 48, and 72 hours. The proliferation-inhibitory effect was examined by the MTT assay. Cells to which the solvent DMSO had been added in equal volume were used as controls. Relative MTT values were obtained in the same manner as the aforementioned (1).
To investigate the influence of the DHMEQ concentrations on inhibition of cell proliferation, the cell viability was judged by using the MM cell lines, KMM1, RPMI8226, and U266 in the same method as in Example 5-(1). […]

[5] = test system: cells of multiple myeloma (MM) patients; assay: Hoechst staining apoptosis assay, cells of multiple myeloma patients; type: cell-based, human; details: 10 μg/ml, 72 hours
Method: Further, to investigate apoptosis induction of cells of multiple myeloma (MM) patients by DHMEQ, cells of multiple myeloma (MM) patients were incubated for 72 hours at a concentration of 10 μg/ml and the apoptosis was examined by observing nuclear condensation or fragmentation with a fluorescence microscope, using Hoechst staining.

[6] = test system: KMH2; assay: MTT assay, KMH2 cells, DHMEQ combined with antitumor agents; type: cell-based; details: DHMEQ 10 μg/ml, 48 hours, with camptothecin, daunomycin or etoposide
Method: as §2
The effects of antitumor agents and the enhancing effect thereon were examined by the MTT assay method as described in Example 5(2).
In this example, the cells used were KMH2. The horizontal axes in FIG. 31 indicate the concentrations of each antitumor agent the DHMEQ concentration. The concentrations of each anticancer agent were set at three levels. The examination was performed on DHMEQ alone, the antitumor agent alone, or both in combination, at each level. DHMEQ was used at a concentration of 10 μg/ml and the treatment time was 48 hours. The vertical axis indicates the relative values of the MTT values of treated cells versus untreated cells, i.e., (treated/untreated)×100%.

[7] = target: NF-κB (Homo sapiens, UniProt P19838+Q04206); assay: p6kb-Luc luciferase reporter assay of NF-κB activity in JCA-1 cells; type: cell-based; parameters: endogenous in cells; details: 2.5, 5, 10, 20, 40 μg/ml DHMEQ, 8 hours
Sequence of NF-κB (Q04206 whole entry): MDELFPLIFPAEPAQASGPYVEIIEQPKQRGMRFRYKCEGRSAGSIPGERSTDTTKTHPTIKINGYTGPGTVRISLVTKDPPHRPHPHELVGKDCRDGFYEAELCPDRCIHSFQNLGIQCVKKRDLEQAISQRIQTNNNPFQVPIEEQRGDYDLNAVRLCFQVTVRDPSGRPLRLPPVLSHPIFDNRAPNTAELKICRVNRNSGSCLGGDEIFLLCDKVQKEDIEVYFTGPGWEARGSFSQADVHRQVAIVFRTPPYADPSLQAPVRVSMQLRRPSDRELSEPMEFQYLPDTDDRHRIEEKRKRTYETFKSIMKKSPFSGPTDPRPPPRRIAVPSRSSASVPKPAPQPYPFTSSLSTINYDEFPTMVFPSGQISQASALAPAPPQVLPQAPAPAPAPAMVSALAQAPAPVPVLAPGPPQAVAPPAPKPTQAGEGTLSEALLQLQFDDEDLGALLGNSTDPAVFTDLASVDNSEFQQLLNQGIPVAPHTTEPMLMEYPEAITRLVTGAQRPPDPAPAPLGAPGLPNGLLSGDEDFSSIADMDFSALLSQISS
Sequence of NF-κB (P19838 1-433 limits assumed): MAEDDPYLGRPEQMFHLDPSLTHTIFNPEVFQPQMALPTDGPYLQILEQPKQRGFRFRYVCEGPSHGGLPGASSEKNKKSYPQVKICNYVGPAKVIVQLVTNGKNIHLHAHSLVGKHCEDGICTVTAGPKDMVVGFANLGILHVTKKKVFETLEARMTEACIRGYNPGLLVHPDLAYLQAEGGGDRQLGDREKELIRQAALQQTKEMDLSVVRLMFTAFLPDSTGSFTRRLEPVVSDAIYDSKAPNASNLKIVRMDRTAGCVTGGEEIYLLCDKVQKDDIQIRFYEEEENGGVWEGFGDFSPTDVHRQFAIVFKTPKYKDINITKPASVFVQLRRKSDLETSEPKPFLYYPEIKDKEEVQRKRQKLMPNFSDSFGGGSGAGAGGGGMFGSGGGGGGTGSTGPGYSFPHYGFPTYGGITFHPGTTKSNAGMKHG
Method: To measure the inhibitory effect of DHMEQ on activity of NF-κB, the activity of NF-κB on DHMEQ at various concentrations was measured using transcriptional activity of NF-κB as an index. As the reporter, the vector construct (p6kb-Luc), containing a luciferase gene as the reporter in the downstream of the promoter containing six tandem copies of the NF-κB binding sequence, was used. This reporter plasmid was transfected into JCA-1 cells using GenePOETER™ (Gene Therapy Systems). Fourteen hours after the transfection, 2.5, 5, 10, 20, and 40 μg/ml DHMEQ was added to the cell medium, followed by further incubation for 8 hours. Subsequently, cells were recovered and luciferase activity was measured. […] Each luciferase activity was measured and the absolute value was presented by standardization. All experiments were conducted independently three times, producing averages and standard deviations.

O=C(NC1=CC(=O)C2OC2C1O)c1ccccc1O (stereo not drawn) [DHMEQ, 5,6-epoxy-4-hydroxy-3-salicyloylamino-2-cyclohexenone]
proliferation of ATL cells obtained from patients (MTT) [1]: exhibits an inhibitory effect | LD50 at 24 h [2]: 188 mg/kg | mortality/survival after 24 hours ([3]; 5 mg/mouse (about 250 mg/kg)): dead on the day of administration | mortality/survival after 24 hours ([3]; 0.156, 0.313, 0.625, 1.25, or 2.5 mg/mouse): survived | cell proliferation, concentration dependence (MTT) [4]: suppressed in proportion to the DHMEQ concentrations | cell proliferation, time course (MTT) [4]: suppressed in proportion to the DHMEQ treatment time | apoptosis (Hoechst staining) [5]: induces apoptosis | effect on the action of antitumor agents (MTT) [6]: enhances the effect of any antitumor agent used | NF-κB activity (luciferase) in JCA-1 cells [7]: concentration-dependently inhibits
